One may read the Ki as a dissociation constant, usually derived from enzyme kinetics or from competition with a known ligand. Read a high Ki as lower affinity. One may read the IC50 as the concentration that gives 50% inhibition.

Assay [1] is filed under the species Mus musculus. As to the kind of experiment: Tested for antagonistic activity against Delta agonist DPDPE in the MVD assay. Format: functional.
The species entered for assay [2] is Cavia porcellus. As to the kind of experiment: Tested for antagonistic activity against Mu agonist TAPP in the GPI assay. Format: functional.
For assay [3], the target named is Kappa-type opioid receptor (Homo sapiens, UniProt P41145). In words: Tested for binding affinity towards Opioid receptor kappa 1.
Sequence of Kappa-type opioid receptor (P41145 whole entry): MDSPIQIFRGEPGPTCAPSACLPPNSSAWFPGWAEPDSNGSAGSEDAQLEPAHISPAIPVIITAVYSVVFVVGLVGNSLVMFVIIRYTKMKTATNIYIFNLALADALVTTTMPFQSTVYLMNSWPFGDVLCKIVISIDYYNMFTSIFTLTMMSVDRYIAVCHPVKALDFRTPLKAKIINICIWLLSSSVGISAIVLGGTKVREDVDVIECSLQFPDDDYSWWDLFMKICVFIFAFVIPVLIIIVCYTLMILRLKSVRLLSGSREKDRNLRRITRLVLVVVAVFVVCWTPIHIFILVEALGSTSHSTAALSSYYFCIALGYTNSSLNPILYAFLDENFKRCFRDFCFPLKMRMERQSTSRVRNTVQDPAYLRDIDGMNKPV
Assay [4] is filed under the species Mus musculus. As to the kind of experiment: In vitro inhibition of electrically evoked contractions of mouse vas deferens(MVD). Format: functional, organism-based.
The species entered for assay [5] is Cavia porcellus. As to the kind of experiment: In vitro inhibition of electrically evoked contractions of guinea pig ileum(GPI). Format: functional.

SMILES strings stand for the structures. Peptide text beside a SMILES is read from it. * marks the point of attachment. X1 = Cc1cc(O)cc(C)c1C[C@H](C)C(=O)*

For `Cc1cc(O)cc(C)c1C[C@H](C)C(=O)N[C@@H](C)C(=O)NCC(=O)N[C@@H](Cc1ccccc1)C(=O)N[C@@H](CC(C)C)C(N)=O` (X1-AGFL-NH2), the Ke in the assay listed under Mus musculus [1] came out at 28.1 nM; in the assay listed under Cavia porcellus [2], 154 nM. Also, the inhibition constant (Ki) in assay [3] is more than 10 µM.

Consider `Cc1cc(O)cc(C)c1C[C@H](N)C(=O)N[C@@H](C)C(=O)NCC(=O)N[C@@H](Cc1ccccc1)C(=O)N[C@@H](CC(C)C)C(N)=O`, for which the IC50 in the assay filed under Mus musculus [4] is 0.212 nM; in the assay listed under Cavia porcellus [5], 0.586 nM. For the same molecule, in assay [3], the inhibitory constant (Ki) is more than 10 µM.

Values taken from ChEMBL document CHEMBL1134161, “Stereospecific synthesis of (2S)-2-methyl-3-(2',6'-dimethyl-4'-hydroxyphenyl)-propionic acid (Mdp) and its incorporation into an opioid peptide” (Bioorg Med Chem Lett, 2001).
